From patent US9744186B2 (priority 2012, dated 2017)

Key:
[1] = Compound solubility in media; format: physicochemical; conditions: DMEM+2% FBS cell culture media, 37 °C, plasma or biological fluid, kinetic from dmso stock; DMEM+2% FBS media
Experimental: (§1) Treating the cells: Media (DMEM+2% FBS) was pre-warmed to 37° C. […] The 96-well plate was removed from the 37° C. incubator, and the media replaced on the plate with the serial dilutions of the test drug. The plate was then returned to 37° C. for 48 h.

[2] = TC50 MTS assay with human cancer cell lines: HEPG2; format: cell-based; conditions: HEPG2 cells, 96 h drug treatment
Experimental: (§2) Plating Cells: The Huh7, HEPG2, HEK293, MCF-7, PK9, RPK9, or BxPC3 cells were passaged when they were about 70% confluent. The cells were counted using a hemocytometer, and then diluted cells to 0.5×10^5 cells per mL in DMEM+10% FBS. 100 µL of the cells (5,000 cells) were plated per well in a clear 96-well plate. The cells were allowed to attach for 24 hours at 37° C.
(§3) Treating the cells: Pre-warm the DMEM media without phenol red+2% FBS media to 37° C. […] This will bring the final DMSO concentration to 0.5%. Use these 0.5 mM dilutions to further serially the drugs in DMEM without phenol red+2% FBS+0.5% DMSO. This will keep the concentration of DMSO in each condition identical. Remove the 96-well plate from the 37° C. incubator. Replace the media on the plate with the dilutions of the drugs. Stagger these treatments by 1 h and write the treatment time on each set of plates. Return to 37° C. for 48 h or 96 h as indicated.
(§4) MTS Assay: The reagents from CellTiter 96 kit (Promega Corporation, Madison, Wis.) were thawed at room temperature in the dark for 1 h. The 96-well plate was removed from the 37° C. incubator at 48 h after drug treatment. 20 μL of the combined MTS/PMS reagent to each well of the plate, mixed, and the plate returned to 37° C. The absorbance of each well at 490 nm and 650 nm was determined using the Flexstation 3 microplate reader in endpoint mode every hour for 3 h. The solutions in the wells were mixed prior to each reading. Fit Data to the Emax model: y=(Emax*x)/(TC50+x), where Emax is the maximum inhibition and TC50 is the inhibitory dose 50%. Alternatively, fit the data to the Emax sigmoidal model: y=(Emax*x^slope)/(TC50^slope+x^slope), where slope is the Hill Slope.
(§5) Each TC50 was the average value of three measurements as described herein. […] The RPK9 cells are deficient in deoxycytidine kinase (“dCK”) activity, an enzyme required for the initial phosphorylation of dFdC to dFdCMP (see FIG. 2).

[3] = test system: hENT1; experiment: TC50 MTS assay with human cancer cell lines: Huh7; format: cell-based; conditions: human, Huh7 cells; 48 h drug treatment; 10 μM S-(4-nitrobenzyl)-6-thioinosine (hENT1 inhibitor) added; read-out: TC50 (μM) in Huh7 cells NBTI
Experimental: as §2, §3, §4, §5

[4] = TC50 MTS assay with human cancer cell lines: Huh7; format: cell-based; conditions: human, Huh7 cells; 96 h drug treatment
Experimental: as §2, §3, §4, §5

[5] = test system: HCV luciferase replicon; experiment: Isobologram analysis of synergism with other anti-viral compounds; format: cell-based, hepatitis C virus (HCV)
Experimental: Isobologram analysis was carried to assess the potential synergistic interaction of representative disclosed compounds with representative antiviral compounds. The isobolgram analysis was conducted as previously described by Chou and Talalay (see Chou T. C. and Talalay P. “Analysis of combined drug effects: a new look at a very old problem.” Trends Pharmacol Sci 1983; 4:450-4; and Chou T. C. and Talalay P. “Quantitative analysis of dose-effect relationships: the combined effects of multiple drugs or enzyme inhibitors.” Adv Enzyme Regul 1984; 22:27-55). The definitions of synergism are those described by Chou (see Chou, T. C. (2006) Theoretical basis, experimental design, and computerized simulation of synergism and antagonism in drug combination studies. Pharmacol Rev. 58(3):621-81).
Data for the isobologram analysis are shown in FIGS. 12-15, and shown in each figure are the test compound concentrations and corresponding combination index.

[6] = TC50 MTS assay with human cancer cell lines: HEK293; format: cell-based; conditions: HEK293 cells, 96 h drug treatment
Experimental: as §2, §3, §4, §5

[7] = TC50 MTS assay: RPK9 cells (deficient in deoxycytidine kinase); format: cell-based; conditions: human, 48 h drug treatment, dCK-deficient cells
Experimental: as §2, §3
(§6) MTS Assay: The reagents from CellTiter 96 kit (Promega Corporation, Madison, Wis.) were thawed at room temperature in the dark for 1 h. The 96-well plate was removed from the 37° C. incubator at 48 h after drug treatment. […] The absorbance of each well at 490 nm and 650 nm was determined using the Flexstation 3 microplate reader in endpoint mode every hour for 3 h. The solutions in the wells were mixed prior to each reading. […]

[8] = TC50 MTS assay with human cancer cell lines: MCF-7; format: cell-based; conditions: MCF-7 cells, 96 h drug treatment
Experimental: as §2, §3, §4, §5

[9] = test system: HCV luciferase replicon; experiment: Reversal of anti-HCV activity by exogenous nucleosides; format: cell-based, hepatitis C virus (HCV); conditions: drug 1000, 100 or 25 nM; 50 μM cytidine or 2′-deoxycitidine; 48 h
Experimental: After 48 hours, the cells were lysed, and the total luciferase activity was determined. […] Where indicated, either 50 μM cytidine (C) or 50 μM 2′-deoxycitidine (dC) was also included.
The cells were plated, incubated with drug, and luciferase activity assayed essentially as described herein above. The incubation with drug was for 48 h.

[10] = TC50 MTS assay: PK9 cells; format: cell-based; conditions: human, 48 h drug treatment
Experimental: as §2, §3, §6

[11] = test system: HCV luciferase replicon; experiment: HCV luciferase replicon IC50 assay in Huh7 cells; conditions: Hepatitis C virus
Experimental: Plating Cells: The Luciferase replicon cell line was passaged when it was at about 70% confluency. The cells were counted by using a hemocytometer and diluted to 1×10^5 cells per mL in DMEM+10% FBS+[…] G415. The cells were plated as follows: 100 μL of the cells (10,000 cells) per well in a white-walled 96-well plate. The cells were allowed to attach for 24 hours at 37° C.
as §1
Luciferase Assay: The Bright-Glo reagent (Promega Corporation, Madison, Wis.) was removed from the −80° C. freezer and allowed to thaw it at 4° C. in the dark. The amount of reagent necessary for the experiment (3.65 mL) was removed, and the remaining reagent was returned to −80° C. The Glo Lysis Buffer and the Bright Glow reagent were allowed to warm to room temperature for 30 min in the dark. The 96 well plate was removed from the incubator and the cells to allowed cool to room temperature for 30 min. The media was removed from the cells, and each well was gently washed in 100 μL of phosphate buffered saline (PBS). The PBS was removed and then 50 μL of the Glo Lysis Buffer was added to each well, followed by gently rocking the plate for 15 min at room temperature in the dark to ensure complete cell lysis. To each well of the 96-well plate was added 50 μL of the Bright Glo reagent and it was mixed well with the lysate. The plate was inserted into a GloMax 96 plate reader and allowed to sit for 5 min in the dark for the luciferase reaction to reach a steady state. The luminescence on the plate was read by using the pre-installed “Bright Glo” Promega program (Synergy Software) and the data were collected and saved. The data were fit to a 4 parameter logistic curve using Kaleidagraph using the following equation: 100/(1+(x/m3)^m4).
The data in Table 1 were determined for cells exposed to drug for 48 h. The IC50 is the concentration of each compound necessary to inhibit the replication of the HCV luciferase replicon to 50%.
That is, the cells were exposed to drug for 2 h at 37° C., followed by 46 h at 37° C. or incubated in the presence of drug for 48 h at 37° C.

[12] = TC50 MTS assay with human cancer cell lines: BxPC3; format: cell-based; conditions: BxPC3 cells, 96 h drug treatment
Experimental: as §2, §3, §6

Nc1ccn([C@@H]2O[C@H](CO)[C@@H](O)C2(F)F)c(=O)n1 [gemcitabine, 4-amino-1-((2R,4R,5R)-3,3-difluoro-4-hydroxy-5-(hydroxymethyl)tetrahydrofuran-2-yl)pyrimidin-2(1H)-one, reference compound]
solubility [1]: > 500 µM | CC50 at 96 h [2]: 311 ± 55 nM | CC50 at 48 h [3]: > 500 µM | CC50 at 96 h [4]: 3410 ± 1360 nM | Interaction Type with PSI-6130 ([5]; Compound 2 = PSI-6130): synergism | Interaction Type with PSI-7977 ([5]; Compound 2 = PSI-7977): slight synergism | CC50 at 96 h [6]: 560 ± 130 nM | CC50 at 48 h [7]: > 500 µM | CC50 at 96 h [8]: 67 ± 14 nM | reversal of the inhibition of the HCV luciferase replicon by deoxycytidine and cytidine [9]: reversal | CC50 at 48 h [10]: 0.095 ± 0.035 µM | IC50 ([11]; Huh-7, 48 h, cells incubated with drug continuously for 48 h (Table 5)): 58.4 ± 6.1 nM | IC50 ([11]; Huh-7, cells incubated with drug for 2 h, followed by 46 h without drug): 170 ± 33 nM | CC50 at 96 h [12]: 2.9 ± 0.3 nM
